The source made the active and inactive calls. No rule for the calls is given here.
Test system: CCRIS mutagenicity, Ames/micronucleus/aberration tests
Assay: CCRIS mutagenicity studies
Conditions: Test System: AMES SALMONELLA TYPHIMURIUM, Method: STANDARD PLATE
[1] = Strain/Indicator: TA98, Metabolic Activation: NONE
[2] = Strain/Indicator: TA98, Metabolic Activation: RAT, LIVER, S-9, AROCLOR 1254
[3] = Strain/Indicator: TA100, Metabolic Activation: NONE
[4] = Strain/Indicator: TA100, Metabolic Activation: RAT, LIVER, S-9, AROCLOR 1254
[5] = Strain/Indicator: TA1535, Metabolic Activation: NONE
[6] = Strain/Indicator: TA1535, Metabolic Activation: RAT, LIVER, S-9, AROCLOR 1254
[7] = Strain/Indicator: TA1537, Metabolic Activation: NONE
[8] = Strain/Indicator: TA1537, Metabolic Activation: RAT, LIVER, S-9, AROCLOR 1254

| SMILES | mutagenic call (Strain/Indicator: TA98, Metabolic Activation: HAMSTER, LIVER, S-9, AROCLOR 1254) | mutagenic call [1] | mutagenic call [2] | mutagenic call (Strain/Indicator: TA100, Metabolic Activation: HAMSTER, LIVER, S-9, AROCLOR 1254) | mutagenic call [3] | mutagenic call [4] | mutagenic call (Strain/Indicator: TA1535, Metabolic Activation: HAMSTER, LIVER, S-9, AROCLOR 1254) | mutagenic call [5] | mutagenic call [6] | mutagenic call (Strain/Indicator: TA1537, Metabolic Activation: HAMSTER, LIVER, S-9, AROCLOR 1254) | mutagenic call [7] | mutagenic call [8] | mutagenic call (Strain/Indicator: TA1538, Metabolic Activation: HAMSTER, LIVER, S-9, AROCLOR 1254) | mutagenic call (Strain/Indicator: TA1538, Metabolic Activation: NONE) | mutagenic call (Strain/Indicator: TA1538, Metabolic Activation: RAT, LIVER, S-9, AROCLOR 1254) | mutagenic call (Strain/Indicator: TA98, Metabolic Activation: RAT, LIVER, S-9, PHENOBARBITAL) | mutagenic call (Strain/Indicator: TA100, Metabolic Activation: RAT, LIVER, S-9, PHENOBARBITAL) |
| --- | --- | --- | --- | --- | --- | --- | --- | --- | --- | --- | --- | --- | --- | --- | --- | --- | --- |
| C[C@@H]1CC[C@@]2(OC1)O[C@H]1C[C@H]3[C@@H]4CC=C5C[C@@H](O)CC[C@]5(C)[C@H]4CC[C@]3(C)[C@H]1[C@@H]2C | inactive; negative | inactive; negative | inactive; negative | inactive; negative | inactive; negative | inactive; negative | inactive; negative | inactive; negative | inactive; negative | inactive; negative | inactive; negative | inactive; negative | inactive; negative | inactive; negative | inactive; negative |  |  |
| O=[N+]([O-])c1cccc(NS(=O)(=O)c2cccc3cccnc23)c1 |  | inactive; negative | inactive; negative |  | inactive; negative | inactive; negative |  | inactive; negative | inactive; negative |  | inactive; negative | inactive; negative |  |  |  |  |  |
| COc1cc2nc3occc3c(OC)c2cc1OC |  |  |  |  |  |  |  |  |  |  |  |  |  |  |  | active; positive | active; positive |

Source: PubChem BioAssay AID1259407 (Chemical Carcinogenesis Research Information System (CCRIS), 2018)
